Data as given in patent publication US5760188A, “Marker for neurotensin receptor” (Martin R&F Inc., priority 1996, dated 1998).

Tests used:
[1] = Stability / shelf life; assay type: physicochemical; conditions: protected from light and maintained at 4° C.
[2] = Solubility; assay type: physicochemical; conditions: distilled water or aqueous buffer
[3] = Toxicity (statement)

Structure (SMILES): CC[C@H](C)[C@H](NC(=O)[C@H](Cc1ccc(O)cc1)NC(=O)[C@@H]1CCCN1C(=O)[C@H](CCCNC(=N)N)NC(=O)[C@H](CCCNC(=N)N)NC(=O)[C@@H]1CCCN1C(=O)[C@H](CCCCN)NC(=O)[C@H](CC(N)=O)NC(=O)[C@H](CCC(=O)O)NC(=O)[C@H](Cc1ccc(O)cc1)NC(=O)[C@H](CC(C)C)NC(=O)[C@H](CCC(=O)O)NC(=S)Nc1ccc2c(c1)C(=O)OC21c2ccc(O)cc2Oc2cc(O)ccc21)C(=O)N[C@@H](CC(C)C)C(=O)O [N-FTC-[Glu^1]NT, N-fluoresceyl thiocarbamyl-[Glu^1] neurotensin]
- stability [1]: stable
- solubility [2]: freely soluble
- toxicity [3]: 100% non-toxic
